Here are results for 1 compound from article PMC10419083, “Actions of a Novel Bacterial Topoisomerase Inhibitor against Neisseria gonorrhoeae Gyrase and Topoisomerase IV: Enhancement of Double-Stranded DNA Breaks” (International Journal of Molecular Sciences, 2023).

The test addresses T1, human topoisomerase IIα (Homo sapiens, UniProt P11388).
T1 construct: gene TOP2A; recombinant wild-type, expressed in Saccharomyces cerevisiae and purified
The experiment in a line: DNA cleavage assay, pBR322, agarose gel. The test is classed as biochemical. Conditions: single-stranded and double-stranded DNA break induction; 300 nM enzyme, 25 mM MgCl2, 500 mM KCl, pH 7.9, 37 °C, 10 min.

T1 sequence (P11388 whole entry): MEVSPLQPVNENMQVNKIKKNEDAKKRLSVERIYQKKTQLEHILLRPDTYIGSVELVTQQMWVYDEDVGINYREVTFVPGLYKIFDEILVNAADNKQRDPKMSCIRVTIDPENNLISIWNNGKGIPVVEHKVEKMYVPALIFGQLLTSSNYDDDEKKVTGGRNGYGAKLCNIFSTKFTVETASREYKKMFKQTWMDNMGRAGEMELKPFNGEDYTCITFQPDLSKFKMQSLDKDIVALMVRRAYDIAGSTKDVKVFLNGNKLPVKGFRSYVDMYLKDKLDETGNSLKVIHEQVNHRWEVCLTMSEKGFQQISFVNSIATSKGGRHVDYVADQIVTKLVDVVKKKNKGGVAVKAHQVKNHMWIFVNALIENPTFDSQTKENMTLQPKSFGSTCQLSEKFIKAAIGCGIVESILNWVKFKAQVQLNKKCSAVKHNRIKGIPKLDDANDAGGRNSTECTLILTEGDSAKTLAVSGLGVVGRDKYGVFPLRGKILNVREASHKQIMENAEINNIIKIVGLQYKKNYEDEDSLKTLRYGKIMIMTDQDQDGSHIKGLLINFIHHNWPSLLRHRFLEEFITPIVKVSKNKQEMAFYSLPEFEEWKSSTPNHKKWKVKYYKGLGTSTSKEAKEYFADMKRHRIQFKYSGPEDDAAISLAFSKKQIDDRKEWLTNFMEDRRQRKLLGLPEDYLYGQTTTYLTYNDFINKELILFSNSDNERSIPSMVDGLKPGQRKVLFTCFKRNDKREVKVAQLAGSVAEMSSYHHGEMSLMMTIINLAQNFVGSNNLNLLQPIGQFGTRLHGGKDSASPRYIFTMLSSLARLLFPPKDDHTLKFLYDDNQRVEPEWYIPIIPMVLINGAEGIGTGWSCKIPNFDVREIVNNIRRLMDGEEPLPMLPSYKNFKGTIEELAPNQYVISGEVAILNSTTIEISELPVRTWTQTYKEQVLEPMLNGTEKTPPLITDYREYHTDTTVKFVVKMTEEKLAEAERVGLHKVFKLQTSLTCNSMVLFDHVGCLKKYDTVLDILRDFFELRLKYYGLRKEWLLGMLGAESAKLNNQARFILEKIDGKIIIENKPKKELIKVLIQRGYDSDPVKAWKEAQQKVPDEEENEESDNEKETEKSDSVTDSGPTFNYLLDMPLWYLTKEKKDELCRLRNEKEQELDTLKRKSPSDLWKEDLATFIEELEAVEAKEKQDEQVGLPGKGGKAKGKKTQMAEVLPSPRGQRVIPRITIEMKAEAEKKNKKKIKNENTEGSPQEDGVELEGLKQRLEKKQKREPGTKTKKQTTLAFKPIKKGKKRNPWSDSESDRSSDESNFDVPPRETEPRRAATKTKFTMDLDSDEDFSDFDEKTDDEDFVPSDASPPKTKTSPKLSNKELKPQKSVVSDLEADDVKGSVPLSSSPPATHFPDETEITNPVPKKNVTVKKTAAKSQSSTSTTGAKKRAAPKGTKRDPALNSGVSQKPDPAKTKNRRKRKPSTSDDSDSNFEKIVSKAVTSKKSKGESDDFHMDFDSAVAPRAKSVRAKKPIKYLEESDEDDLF

On to `COc1ccc2nccc(CC[C@H]3OC[C@H](NC(=O)c4ccc5c(c4)NC(=O)CO5)CO3)c2c1` [OSUAB-185], for which the CC50 result was “reasonable activity against the human type II enzyme, with CC50 values in the low µM”.
